ChEMBL document CHEMBL1201862, “PubChem BioAssay data set” (2004)
Calls of active or inactive are those of the source.

Experiments:
[1] = general cell-killing toxicity readout – plate reader, dry powder samples, cytotoxicity control for PAX8 inhibitor project, dose response (AID 743021); assay type: functional, cell-based
Paired box protein Pax-8 = Paired box protein Pax-8 (Homo sapiens, UniProt Q06710); assay: PAX8 transcriptional activity inhibition in RMG-I – RMG-I cells, luciferase, cherry-pick, dose response (AID 687027); assay type: functional, cell-based;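 also: luciferase reporter driven by Pax8 target thyroperoxidase promoter measured by SteadyGlo luminescence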
[2] = target: G-protein coupled receptor 35 (Homo sapiens, UniProt Q9HC97); assay: SAR Analysis for the identification of Selective Antagonists of ERK1/2 Activity in GPR35-Overexpressing U2OS Cells. [Related pubchem assays: 2079, 2058 ]; assay type: functional, cell-based
Melanocortin receptor 4 = Melanocortin receptor 4 (Homo sapiens, UniProt P32245); assay type: functional, cell-based;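 also: Cell-based assay with luminescence read-out, confirmatory dose-response testing for agonist activity of biased ligands at MC4R; human U2OS cells with tagged receptor and beta-arrestin; potency of agonists that increase receptor coupling to beta-arrestin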
[3] = target: G-protein coupled receptor 55 (Homo sapiens, UniProt Q9Y2T6); assay: blockers of GPR55 signalling, imaged – imaging, image-based, counter-screen for GPR35 antagonist project, SAR follow-up (AID 2397); assay type: functional
[4] = target: Dual specificity protein phosphatase 3 (Homo sapiens, UniProt P51452); assay: VHR phosphatase inhibition, dose response, selectivity assay for STEP inhibitor project, biochemical (AID 602374); assay type: functional; conditions: read-out: IC50_Mean
[5] = target: T1, Tyrosine-protein phosphatase non-receptor type 5 (Homo sapiens, UniProt P54829); assay: PTPN5 enzyme inhibition – biochemical, fluorescence intensity, uHTS hits, confirmation (AID 602372); assay type: functional; conditions: read-out: IC50_Mean
T1 sequence (P54829 whole entry): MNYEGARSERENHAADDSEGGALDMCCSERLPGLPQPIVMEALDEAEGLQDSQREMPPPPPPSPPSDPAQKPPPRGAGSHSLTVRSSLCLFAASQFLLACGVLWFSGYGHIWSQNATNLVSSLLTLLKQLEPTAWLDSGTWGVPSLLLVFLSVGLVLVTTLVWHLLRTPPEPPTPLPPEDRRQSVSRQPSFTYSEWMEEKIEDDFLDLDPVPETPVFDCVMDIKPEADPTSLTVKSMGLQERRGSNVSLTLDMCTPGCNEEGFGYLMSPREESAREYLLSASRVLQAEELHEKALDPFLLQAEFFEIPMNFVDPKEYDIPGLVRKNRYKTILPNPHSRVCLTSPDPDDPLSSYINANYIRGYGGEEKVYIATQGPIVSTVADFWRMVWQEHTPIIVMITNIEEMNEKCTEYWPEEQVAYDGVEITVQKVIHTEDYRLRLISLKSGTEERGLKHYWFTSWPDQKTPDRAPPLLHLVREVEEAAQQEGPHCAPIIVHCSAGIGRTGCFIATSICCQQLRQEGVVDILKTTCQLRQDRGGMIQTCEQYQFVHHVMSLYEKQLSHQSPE

[6] = target: T2, Tyrosine-protein phosphatase non-receptor type 22 (Homo sapiens, UniProt Q9Y2R2); assay: PTPN22 enzyme inhibitors – biochemical, fluorescence, LYP catalytic domain, selectivity assay for LMPTP inhibitor project, dose response (AID 652006); assay type: functional; conditions: read-out: IC50_Mean
T2 sequence (Q9Y2R2 whole entry): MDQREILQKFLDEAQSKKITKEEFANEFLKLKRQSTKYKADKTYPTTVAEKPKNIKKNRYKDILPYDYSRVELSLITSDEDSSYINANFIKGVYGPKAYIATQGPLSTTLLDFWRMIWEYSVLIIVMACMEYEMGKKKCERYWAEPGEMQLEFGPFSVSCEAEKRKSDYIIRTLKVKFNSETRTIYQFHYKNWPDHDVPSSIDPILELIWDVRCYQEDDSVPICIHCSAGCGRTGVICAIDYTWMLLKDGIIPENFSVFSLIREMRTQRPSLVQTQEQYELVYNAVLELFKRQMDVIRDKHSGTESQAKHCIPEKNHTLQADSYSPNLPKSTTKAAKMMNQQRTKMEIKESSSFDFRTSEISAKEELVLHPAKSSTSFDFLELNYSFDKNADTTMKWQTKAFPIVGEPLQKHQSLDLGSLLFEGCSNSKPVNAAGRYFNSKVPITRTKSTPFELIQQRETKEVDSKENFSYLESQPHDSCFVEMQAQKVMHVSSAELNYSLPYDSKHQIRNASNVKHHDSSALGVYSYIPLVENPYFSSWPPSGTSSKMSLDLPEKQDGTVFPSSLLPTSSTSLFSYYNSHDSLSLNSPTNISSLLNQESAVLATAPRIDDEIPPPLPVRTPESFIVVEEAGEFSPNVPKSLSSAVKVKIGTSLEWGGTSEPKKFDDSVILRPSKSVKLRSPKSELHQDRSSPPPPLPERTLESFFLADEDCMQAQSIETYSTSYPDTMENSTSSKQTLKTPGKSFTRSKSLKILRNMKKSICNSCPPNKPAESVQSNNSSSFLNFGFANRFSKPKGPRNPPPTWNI

[7] = target: T3, Low molecular weight phosphotyrosine protein phosphatase (Homo sapiens, UniProt P24666); assay type: functional; conditions: read-out: IC50_Mean
T3 sequence (P24666 whole entry): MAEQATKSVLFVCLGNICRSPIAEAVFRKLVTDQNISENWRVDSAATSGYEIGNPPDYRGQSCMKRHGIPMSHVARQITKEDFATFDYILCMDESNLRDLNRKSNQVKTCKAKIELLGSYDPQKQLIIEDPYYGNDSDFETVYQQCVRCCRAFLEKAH

[8] = target: T3, Low molecular weight phosphotyrosine protein phosphatase; assay type: functional; conditions: read-out: IC50_Mean; remark: listed apart in the source
[9] = target: T2, Tyrosine-protein phosphatase non-receptor type 22; assay type: functional
[10] = target: T2, Tyrosine-protein phosphatase non-receptor type 22; assay: lymphoid phosphatase LYP inhibitors – biochemical, selectivity assay for STEP inhibitor project, dose response (AID 624241); assay type: functional
[11] = target: T4, Tyrosine-protein phosphatase non-receptor type 7 (Homo sapiens, UniProt P35236); assay type: functional
T4 sequence (P35236 whole entry): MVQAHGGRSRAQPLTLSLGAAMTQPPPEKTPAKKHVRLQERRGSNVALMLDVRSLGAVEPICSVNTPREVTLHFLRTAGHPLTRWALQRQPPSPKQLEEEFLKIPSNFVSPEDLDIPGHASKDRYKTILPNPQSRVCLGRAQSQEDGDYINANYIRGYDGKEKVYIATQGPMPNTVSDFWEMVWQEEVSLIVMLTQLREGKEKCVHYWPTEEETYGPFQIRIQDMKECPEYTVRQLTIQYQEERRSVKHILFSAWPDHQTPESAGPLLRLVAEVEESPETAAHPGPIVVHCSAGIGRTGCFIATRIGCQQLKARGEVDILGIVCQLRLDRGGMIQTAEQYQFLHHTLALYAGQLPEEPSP

[12] = target: T5, Carboxy-terminal domain RNA polymerase II polypeptide A small phosphatase 1 (Homo sapiens, UniProt Q9GZU7); assay: CTDSP1 inhibitors, concentration-response, biochemical, absorbance readout, ultra-high-throughput screen actives (AID 540297); assay type: functional
T5 sequence (Q9GZU7 whole entry): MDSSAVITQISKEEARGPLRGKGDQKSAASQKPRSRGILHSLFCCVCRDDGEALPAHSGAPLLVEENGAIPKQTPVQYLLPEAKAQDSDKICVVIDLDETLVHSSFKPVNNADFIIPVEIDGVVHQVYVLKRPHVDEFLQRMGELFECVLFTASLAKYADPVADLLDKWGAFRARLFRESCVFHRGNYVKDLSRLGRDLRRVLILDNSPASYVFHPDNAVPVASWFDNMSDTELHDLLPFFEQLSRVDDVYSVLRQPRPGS

[13] = target: T2, Tyrosine-protein phosphatase non-receptor type 22; assay type: functional; remark: listed apart in the source
[14] = target: T6, Tyrosine-protein phosphatase non-receptor type 11 (Homo sapiens, UniProt Q06124); assay: PTPN11 enzyme inhibitors – biochemical, selectivity assay for STEP inhibitor project, dose response (AID 602367); assay type: functional; conditions: read-out: IC50_Mean
T6 sequence (Q06124 whole entry): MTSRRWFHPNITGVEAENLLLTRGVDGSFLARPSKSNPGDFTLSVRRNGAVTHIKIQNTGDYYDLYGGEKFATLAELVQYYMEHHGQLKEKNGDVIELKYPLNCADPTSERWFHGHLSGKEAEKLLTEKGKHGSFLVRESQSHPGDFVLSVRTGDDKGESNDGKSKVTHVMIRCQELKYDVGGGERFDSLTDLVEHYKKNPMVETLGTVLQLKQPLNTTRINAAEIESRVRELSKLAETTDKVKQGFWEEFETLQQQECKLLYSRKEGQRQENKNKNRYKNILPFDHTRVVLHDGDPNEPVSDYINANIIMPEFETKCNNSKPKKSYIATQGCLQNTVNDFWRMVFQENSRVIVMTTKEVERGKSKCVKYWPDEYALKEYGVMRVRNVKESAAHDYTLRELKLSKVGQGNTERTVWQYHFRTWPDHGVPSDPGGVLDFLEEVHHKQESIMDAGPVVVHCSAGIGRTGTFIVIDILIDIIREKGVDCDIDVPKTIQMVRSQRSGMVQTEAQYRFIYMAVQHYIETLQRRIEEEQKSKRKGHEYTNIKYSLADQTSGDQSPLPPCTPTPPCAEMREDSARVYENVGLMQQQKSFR

[15] = target: T7, Delta-type opioid receptor (Homo sapiens, UniProt P41143); assay: HTS Image-Based Screen for Antagonists of the DOR Receptor. [Related pubchem assays (depositor defined):AID1777, AID1785, AID1786, AID2133]; assay type: functional
[16] = target: T8, Kappa-type opioid receptor (Homo sapiens, UniProt P41145); assay type: functional
Mu-type opioid receptor = Mu-type opioid receptor (Homo sapiens, UniProt P35372); assay: HTS Image-Based Screen for Agonists of the MOR Receptor. [Related pubchem assays (depositor defined):AID1777, AID1785, AID1786, AID2133]; assay type: functional;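 also: imaging of beta-arrestin GFP recruitment into spots after receptor activation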
[17] = target: T8, Kappa-type opioid receptor; assay type: functional; remark: listed apart in the source
[18] = target: T7, Delta-type opioid receptor; assay: HTS Image-Based Screen for Agonists of the DOR Receptor. [Related pubchem assays (depositor defined):AID1777, AID1786, AID2133]; assay type: functional
Beta-galactosidase = Beta-galactosidase (Escherichia coli, UniProt Q8VNN2); assay type: functional
Beta-galactosidase, sequence (Q8VNN2 whole entry): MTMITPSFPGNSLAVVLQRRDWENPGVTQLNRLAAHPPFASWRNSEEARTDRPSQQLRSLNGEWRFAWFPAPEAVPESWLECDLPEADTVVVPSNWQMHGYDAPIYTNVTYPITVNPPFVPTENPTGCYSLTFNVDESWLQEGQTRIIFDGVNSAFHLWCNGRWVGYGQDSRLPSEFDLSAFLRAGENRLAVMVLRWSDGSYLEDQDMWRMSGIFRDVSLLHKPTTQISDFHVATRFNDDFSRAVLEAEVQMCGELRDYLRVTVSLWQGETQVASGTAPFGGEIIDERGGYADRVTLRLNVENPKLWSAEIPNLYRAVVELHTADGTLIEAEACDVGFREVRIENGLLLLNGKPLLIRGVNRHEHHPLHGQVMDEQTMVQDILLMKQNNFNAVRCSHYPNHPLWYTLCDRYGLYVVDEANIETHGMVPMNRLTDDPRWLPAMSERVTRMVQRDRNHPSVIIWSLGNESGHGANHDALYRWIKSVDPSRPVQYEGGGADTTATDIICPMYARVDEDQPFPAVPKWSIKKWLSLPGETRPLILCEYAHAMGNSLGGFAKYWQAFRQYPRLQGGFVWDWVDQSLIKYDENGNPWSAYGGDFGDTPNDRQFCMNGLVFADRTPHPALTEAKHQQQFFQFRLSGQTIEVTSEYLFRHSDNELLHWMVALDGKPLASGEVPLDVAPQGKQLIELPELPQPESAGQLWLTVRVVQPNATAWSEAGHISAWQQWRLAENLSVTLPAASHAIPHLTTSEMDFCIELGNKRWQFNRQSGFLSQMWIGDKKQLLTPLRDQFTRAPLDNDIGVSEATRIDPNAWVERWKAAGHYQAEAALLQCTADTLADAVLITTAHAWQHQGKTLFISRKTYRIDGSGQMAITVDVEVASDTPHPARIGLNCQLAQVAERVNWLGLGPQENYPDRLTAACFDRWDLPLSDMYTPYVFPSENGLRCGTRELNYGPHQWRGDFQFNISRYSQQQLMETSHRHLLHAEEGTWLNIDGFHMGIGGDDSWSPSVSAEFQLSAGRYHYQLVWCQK

T8 sequence (P41145 whole entry): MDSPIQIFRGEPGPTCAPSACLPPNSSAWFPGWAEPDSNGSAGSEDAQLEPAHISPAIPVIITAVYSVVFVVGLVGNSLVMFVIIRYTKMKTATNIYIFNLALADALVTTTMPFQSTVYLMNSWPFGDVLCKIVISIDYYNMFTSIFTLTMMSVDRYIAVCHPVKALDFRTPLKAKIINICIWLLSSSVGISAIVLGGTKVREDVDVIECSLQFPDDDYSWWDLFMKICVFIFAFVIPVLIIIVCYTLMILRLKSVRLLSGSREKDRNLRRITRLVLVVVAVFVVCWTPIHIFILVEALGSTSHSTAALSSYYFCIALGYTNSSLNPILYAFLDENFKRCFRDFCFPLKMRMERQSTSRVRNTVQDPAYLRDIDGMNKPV
T7 sequence (P41143 whole entry): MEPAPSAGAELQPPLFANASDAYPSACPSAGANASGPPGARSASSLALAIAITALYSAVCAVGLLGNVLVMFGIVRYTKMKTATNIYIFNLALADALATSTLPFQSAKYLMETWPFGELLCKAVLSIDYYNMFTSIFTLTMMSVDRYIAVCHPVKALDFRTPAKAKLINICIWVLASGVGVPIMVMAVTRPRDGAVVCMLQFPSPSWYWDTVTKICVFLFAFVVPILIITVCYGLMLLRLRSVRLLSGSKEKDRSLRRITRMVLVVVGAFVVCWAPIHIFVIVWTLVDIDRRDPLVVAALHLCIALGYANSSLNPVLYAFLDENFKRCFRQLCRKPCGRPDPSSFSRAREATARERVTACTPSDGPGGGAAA
Paired box protein Pax-8, sequence (Q06710 whole entry): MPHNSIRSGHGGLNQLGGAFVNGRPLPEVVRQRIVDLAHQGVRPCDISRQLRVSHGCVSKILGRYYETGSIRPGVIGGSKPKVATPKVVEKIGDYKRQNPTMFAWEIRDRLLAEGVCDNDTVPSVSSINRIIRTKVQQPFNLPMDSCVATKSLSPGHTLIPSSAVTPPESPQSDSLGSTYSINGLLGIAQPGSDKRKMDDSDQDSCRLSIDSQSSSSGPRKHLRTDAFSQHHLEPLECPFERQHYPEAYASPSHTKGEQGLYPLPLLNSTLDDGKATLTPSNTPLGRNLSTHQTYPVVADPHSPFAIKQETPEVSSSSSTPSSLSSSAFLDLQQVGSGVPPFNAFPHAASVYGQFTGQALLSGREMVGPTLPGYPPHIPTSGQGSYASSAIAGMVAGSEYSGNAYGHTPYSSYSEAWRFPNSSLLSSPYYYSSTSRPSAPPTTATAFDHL
Dual specificity protein phosphatase 3, sequence (P51452 whole entry): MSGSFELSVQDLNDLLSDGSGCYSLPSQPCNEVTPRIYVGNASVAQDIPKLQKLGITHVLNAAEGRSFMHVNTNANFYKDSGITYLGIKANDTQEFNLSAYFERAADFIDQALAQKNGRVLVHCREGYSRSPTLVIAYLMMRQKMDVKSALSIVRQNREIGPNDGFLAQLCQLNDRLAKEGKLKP
Mu-type opioid receptor, sequence (P35372 whole entry): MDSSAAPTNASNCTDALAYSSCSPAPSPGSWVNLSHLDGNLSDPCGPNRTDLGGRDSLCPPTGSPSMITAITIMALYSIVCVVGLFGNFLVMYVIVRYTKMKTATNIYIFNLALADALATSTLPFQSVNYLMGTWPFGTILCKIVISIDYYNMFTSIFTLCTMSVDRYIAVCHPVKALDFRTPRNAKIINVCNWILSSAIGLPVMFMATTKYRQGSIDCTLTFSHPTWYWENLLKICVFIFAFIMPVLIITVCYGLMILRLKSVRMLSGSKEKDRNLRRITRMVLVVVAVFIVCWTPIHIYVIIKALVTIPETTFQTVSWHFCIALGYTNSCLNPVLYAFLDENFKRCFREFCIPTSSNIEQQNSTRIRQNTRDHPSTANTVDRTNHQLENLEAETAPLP
G-protein coupled receptor 35, sequence (Q9HC97 whole entry): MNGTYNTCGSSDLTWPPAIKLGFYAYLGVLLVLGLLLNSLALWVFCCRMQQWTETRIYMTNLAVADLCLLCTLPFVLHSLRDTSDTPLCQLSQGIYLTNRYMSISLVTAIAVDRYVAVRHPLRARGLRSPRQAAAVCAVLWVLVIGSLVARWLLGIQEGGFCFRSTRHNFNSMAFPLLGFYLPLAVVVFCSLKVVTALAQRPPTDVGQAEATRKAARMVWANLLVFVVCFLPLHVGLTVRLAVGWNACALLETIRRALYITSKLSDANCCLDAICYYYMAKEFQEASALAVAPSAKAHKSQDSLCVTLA
Melanocortin receptor 4, sequence (P32245 whole entry): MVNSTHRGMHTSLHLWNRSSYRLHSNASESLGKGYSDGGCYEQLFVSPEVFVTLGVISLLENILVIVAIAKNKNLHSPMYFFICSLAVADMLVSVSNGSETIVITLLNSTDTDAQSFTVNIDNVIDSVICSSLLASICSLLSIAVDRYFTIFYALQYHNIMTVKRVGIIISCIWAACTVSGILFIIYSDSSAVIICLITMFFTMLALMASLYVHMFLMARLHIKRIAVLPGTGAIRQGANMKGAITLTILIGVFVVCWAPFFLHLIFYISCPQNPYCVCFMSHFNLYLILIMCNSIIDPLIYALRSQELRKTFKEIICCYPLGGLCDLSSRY
G-protein coupled receptor 55, sequence (Q9Y2T6 whole entry): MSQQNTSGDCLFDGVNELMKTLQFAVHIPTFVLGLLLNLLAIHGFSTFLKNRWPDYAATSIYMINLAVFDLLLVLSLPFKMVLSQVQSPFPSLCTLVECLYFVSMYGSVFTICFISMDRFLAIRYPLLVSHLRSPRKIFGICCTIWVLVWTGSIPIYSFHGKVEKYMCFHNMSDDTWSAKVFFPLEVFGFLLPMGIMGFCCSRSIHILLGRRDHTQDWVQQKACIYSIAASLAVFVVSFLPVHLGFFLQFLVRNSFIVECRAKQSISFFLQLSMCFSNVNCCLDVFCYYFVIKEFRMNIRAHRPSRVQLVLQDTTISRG

Clc1ccc(Cn2ncc3c(N4CCN(c5ccccc5)CC4)ncnc32)cc1
AC50 [1]: 33.9 µM (active) | AC50 (Paired box protein Pax-8): 8.65 µM (active) | IC50 [2]: > 32 µM (not active) | EC50 (Melanocortin receptor 4): > 89.1 µM (inactive) | IC50 [3]: 29.3 µM (inactive)

O=C(COc1ccc(/C=N/NC(=O)c2ccc(O)cc2)cc1)Nc1cccc([N+](=O)[O-])c1
IC50 [4]: 3.06 µM (active) | IC50 [5]: 8.06 µM (active) | IC50 [6]: 11.6 µM (active) | IC50 [7]: 11.2 µM (active) | IC50 [8]: 15.8 µM (active) | IC50 [9]: 64.7 µM (active) | IC50 [10]: 48.9 µM (inactive) | IC50 [11]: 49.1 µM (active) | IC50 [12]: 2.98 µM (active) | IC50 [13]: 37.6 µM (active) | IC50 [14]: 2.41 µM (active)

COc1cc(OC)cc(-c2nnc(NC(=O)c3ccc4c(c3)OCCO4)o2)c1
IC50 [15]: > 32 µM (inactive) | IC50 [16]: > 32 µM | EC50 (Mu-type opioid receptor): > 32 µM (inactive) | IC50 [17]: 13.3 µM (active) | EC50 [18]: > 32 µM (inactive) | EC50 (Beta-galactosidase): > 31.5 µM (inactive)
